From patent US11845770B2, “Ascaroside derivatives and methods of use” (California Institute of Technology, priority 2019, dated 2023)
Entries after “also recorded” stand apart in the source; their conditions may differ.

Tests used:
[1] = system: THP1 human macrophage cells; experiment: Stimulation of THP-1 cells, IL-6 at 6 or 36 hours post stimulation; assay type: cell-based; conditions: THP1-derived macrophages, IFNγ + LPS, 0.1 to 500 μM, FIG. 9
Procedure: Human immortalized monocytic THP-1 cells were maintained in phenol red free RPMI 1640 medium containing 10% (v/v) fetal bovine serum (FBS), 2 mM L-glutamine, penicillin (100 units/mL), streptomycin (100 μg/mL), amphotericin B (2.5 μg/mL), and 50 μM beta-mercaptoethanol (BME) at 37° C. with 5% (v/v) CO2. THP-1 cells were seeded in 1 mL of THP-1 medium (cell culture medium containing 10% (v/v) FBS, 2 mM L-glutamine, penicillin (100 units/mL), streptomycin (100 μg/mL), amphotericin B ([…]), and 50 μM BME)/well at a density of 1×10^6 cells/mL in six-well plates. Cells were differentiated by adding 10, 50, or 100 nM phorbol 12-myristate 13-acetate (PMA) to each well before incubating cells for 5.5 h at 37° C. with 5% (v/v) CO2. Without removing the media, different concentrations (either 0, 0.1, 1.0, 10, 100, 200, or 500 μM) of the compound were added to each well. Cells were stimulated, within 30 min by adding 20 ng/mL interferon gamma (IFNγ) and 100 ng/mL lipopolysaccharide (LPS) to each well. Following stimulation, the THP-1 cells were incubated for 6 or 36 hours at 37° C. with 5% (v/v) CO2. Supernatant was collected and stored at −80° C. until use.
IL-6 released from supernatants collected at 6 or 36 hours post stimulation with IFNγ and LPS were measured using the AlphaLISA Human IL-6 detection kit.

[2] = system: human naïve T cells; experiment: Stimulation of blood derived naïve T cells with Der p1 (house dust mite) antigen; assay type: cell-based; conditions: at 100 μM; human T cells, Der p1 antigen; FIG. 15
Procedure: Naïve T cells from peripheral blood samples were collected and processed using MACSxpress® Whole Blood Pan T Cell Isolation Kit (Miltenyi Biotec), according to the manufacturer's protocol. Isolated naïve T cells were cultured in RPMI medium supplemented with 5% Fetal Bovine Serum (FBS) at 37° C. with 5% (v/v) CO2. T cells were seeded in 24 well plates at a density of 0.5×10^6 cells per well. The cells were pre-treated with the compounds (0, 0.1, 1.0, 10, 100 μM) for 1 hour prior to stimulation. Cells were stimulated with […] of Dermatophagoides pteronyssinus (Der p1) antigen. After 48 hours, fresh […] of Der p1 was added and continued incubating for a further 72 hours at 37° C. with 5% (v/v) CO2. Overall T cells were stimulated with […] of Der p1 antigen for 5 days before supernatants were collected and stored at −80° C. until quantitative detection assays are performed.
Human Interleukin-4 (IL-4), Interleukin-5 (IL-5), Interleukin-6 (IL-6), Interleukin-8 (IL-8), Interleukin-13 ([…]), Interleukin-23 (IL-23), and Interferon gamma (IFNγ) released from supernatants collected post stimulation were measured using Human Magnetic Luminex® Assay Kit. Human Transforming Growth Factor beta (TGFβ) was measured using an Enzyme-Linked Immunosorbent Assay (ELISA)-based analysis.

[3] = system: EPC2 human esophageal keratinocytes; experiment: Stimulation of EPC2-hTERT human esophageal keratinocytes with Poly(I:C); assay type: cell-based; conditions: 24 hours, increasing concentrations; for percent inhibition relative to Stimulated of TSLP expression: FIG. 19A; for percent inhibition relative to Stimulated of IL-6 expression: FIG. 19B; for percent inhibition relative to Stimulated of MCP-1 expression: FIG. 19C
Procedure: EPC2-hTERT (EPC2) cells were maintained in supplemented keratinocyte serum-free medium (KSFM) with 0.09 mM calcium chloride containing epidermal growth factor (5 ng/mL), bovine pituitary extract ([…]), penicillin (100 units/mL), and streptomycin ([…]) (ThermoFisher #17005042) at 37° C. with 5% (v/v) CO2. EPC2 cells were seeded in 12-well plates at 0.55×10^6 cells per well in supplemented KSFM at 37° C. with 5% (v/v) CO2 and after 6 hours the old media is removed and changed with fresh media. After overnight incubation, the old media is changed to supplemented KSFM containing 1.8 mM calcium chloride and incubated for 72 hours at 37° C. with 5% (v/v) CO2. After the old media is removed and fresh supplemented KSFM containing 1.8 mM calcium chloride is added, the cells are pre-treated with different concentrations of compounds (0, 1, 10, 100, 500, 1000 μM) for 1 hour prior to stimulation. To stimulate the cells, Poly (I:C) (Tocris #4287) is added to the wells at […] concentration without removing the media and incubated for 24 hours at 37° C. with 5% (v/v) CO2. Supernatants are collected in Eppendorf tubes, centrifuged in a microfuge at maximum speed for 10 minutes at 4° C., and the centrifuged supernatants stored at −80° C. until quantitative detection assays are performed. Human Interleukin-6 (IL-6), Monocyte Chemoattractant Protein-1 (MCP-1), and Thymic stromal lymphopoietin (TSLP) released from supernatants collected post stimulation were measured using the AlphaLISA detection kit for human IL-6, MCP-1, and TSLP, respectively.

[4] = system: THP-1 derived macrophages; experiment: Stimulation of THP-1 cells, cytokine release 72 h post stimulation; assay type: cell-based, human; conditions: 72 h post stimulation (IFN-γ + LPS); 0.1, 1, 10, 100 or 200 μM vs 0 μM
Procedure: Human immortalized monocytic THP-1 cells were maintained in phenol red free RPMI 1640 medium containing 10% (v/v) fetal bovine serum (FBS), 2 mM L-glutamine, penicillin (100 units/mL), streptomycin (100 μg/mL), amphotericin B (2.5 μg/mL), and 50 μM beta-mercaptoethanol (BME) at 37° C. with 5% (v/v) CO2. THP-1 cells were seeded in 1 mL of THP-1 medium (cell culture medium containing 10% (v/v) FBS, 2 mM L-glutamine, penicillin (100 units/mL), streptomycin (100 μg/mL), amphotericin B (2.5 μg/mL), and 50 μM BME)/well at a density of 1 million cells/mL in six-well plates. Cells were differentiated by adding 100 nM phorbol 12-myristate 13-acetate (PMA) to each well before incubating cells for 5.5 h at 37° C. with 5% (v/v) CO2. Without removing the media, different concentrations (either 0, 0.1, 1, 10, 100, or 200 μM) of 1 and 10 were added to each well. Cells were stimulated, within 30 min by adding 20 ng/mL interferon gamma (IFN-γ) and 100 ng/mL lipopolysaccharide (LPS) to each well. Following stimulation, the THP-1 cells were incubated for 72 h at 37° C. with 5% (v/v) CO2. Supernatant was collected and stored at −80° C. until use.
IL-6 release from supernatant collected at 72 hours post stimulation was measured using the AlphaLISA Human IL-6 detection kit.
TNFα release from supernatant collected at 72 hours post stimulation was measured using the AlphaLISA Human TNFα detection kit.

[5] = system: A549 human alveolar epithelial cells; experiment: Stimulation of A549 human lung carcinoma cell line, cytokine expression; assay type: cell-based; conditions: A549, 10 ng/mL TNFα + 10 ng/mL IL-1β, 48 hours
Procedure: A549 cells are cultured in DMEM supplemented with 2 mM glutamine and 10% Fetal Bovine Serum (FBS) at 37° C. with 5% (v/v) CO2. Cells are grown to approximately 80% confluency before being passage and media is changed every 2-3 days. A549 cells are seeded in 24-well plates at a density of 0.5×10^6 cells per well at 37° C. with 5% (v/v) CO2. The cells are pre-treated with the compounds (0, 1.0, 10, 100 μM) for 1 hour prior to addition of 10 ng/mL of TNFα and 10 ng/mL of IL-1β for 48 hours at 37° C. with 5% (v/v) CO2. Supernatants were collected and stored at −80° C. until quantitative detection assays are performed.
Human Eotaxin, Monocyte Chemoattractant Protein-1 (MCP-1), Interleukin-6 (IL-6), Interleukin-25 (IL-25), Interleukin-33 (IL-33), Thymic stromal lymphopoietin (TSLP), and Granulocyte-Macrophage Colony-Stimulating Factor (GM-CSF) released from supernatants collected post stimulation were measured using Human Magnetic Luminex® Assay Kit. Human CCL5/RANTES was measured using an Enzyme-Linked Immunosorbent Assay (ELISA)-based analysis.

What does the source list for `C[C@H](CC/C=C/C(=O)OCC1CCCCC1)O[C@@H]1O[C@@H](C)[C@H](O)C[C@H]1O` [Compound 3, cyclohexylmethyl (2E,6R)-6-{[(2R,3R,5R,6S)-3,5-dihydroxy-6-methyloxan-2-yl]oxy}hept-2-enoate]?
percent inhibition relative to Control of IL-6 levels secreted [1]: inhibited IL-6 expression in statistically significant, dose-dependent manner; percent inhibition relative to Stimulated of IL-6 expression [2]: statistically significant inhibition; percent inhibition relative to Stimulated of IL-8 expression [2]: statistically significant inhibition; percent inhibition relative to Stimulated of TNFα expression [2]: statistically significant inhibition; percent inhibition relative to Stimulated of TSLP expression [3]: statistically significant inhibition; also recorded: completely inhibited; percent inhibition relative to Stimulated of IL-6 expression [3]: inhibited IL-6 expression in statistically significant, dose-dependent manner; percent inhibition relative to Stimulated of MCP-1 expression [3]: inhibited MCP-1 expression in statistically significant, dose-dependent manner

How did the “fold change of IL-6 levels secreted by the THP1-derived macrophages” value [4] turn out when `C[C@H](CCCCC(=O)OC(C)(C)C)O[C@@H]1O[C@@H](C)[C@H](O)C[C@H]1O` [Compound 10, tert-butyl (R)-6-(((2R,3R,5R,6S)-3,5-dihydroxy-6-methyltetrahydro-2H-pyran-2-yl)oxy)heptanoate] was run?
The value was “reduced these levels significantly; also recorded: even more significantly reduced”.

What about the “fold change of TNFα levels secreted by the THP1-derived macrophages” value [4] of the same molecule?
Its value is “reduced these levels significantly”.

And the “percent inhibition relative to Control of IL-6 levels secreted” value [1]?
The value was “inhibited IL-6 expression in statistically significant, dose-dependent manner”.

What about the “percent inhibition relative to Stimulated of GM-CSF expression” value ([5]; 1.0, 10, 100 μM, FIG. 16, 17) of the same molecule?
The value was “overall statistically significant, dose-dependent inhibition”.

What about the “percent inhibition relative to Stimulated of IL-25 expression” value ([5]; 1.0, 10, 100 μM, FIG. 16, 17) of the same molecule?
Its value is “overall statistically significant, dose-dependent inhibition”.

And the “percent inhibition relative to Stimulated of IL-33 expression” value ([5]; 1.0, 10, 100 μM, FIG. 16, 17)?
The value was “overall statistically significant, dose-dependent inhibition”.

What about the “percent inhibition relative to Stimulated of MCP-1 expression” value ([5]; 1.0, 10, 100 μM, FIG. 16, 17) of the same molecule?
The value was “overall statistically significant, dose-dependent inhibition”.

And the “percent inhibition relative to Stimulated of Eotaxin expression” value ([5]; FIG. 18)?
The value was “robust, statistically significant inhibition”.

And the “percent inhibition relative to Stimulated of IL-6 expression” value ([5]; FIG. 18)?
The value was “robust, statistically significant inhibition”.

And the “percent inhibition relative to Stimulated of RANTES expression” value ([5]; FIG. 18)?
Its value is “robust, statistically significant inhibition”.

What about the “percent inhibition relative to Stimulated of TSLP expression” value ([5]; FIG. 18) of the same molecule?
Its value is “robust, statistically significant inhibition”.

And the “percent inhibition relative to Stimulated of TSLP expression” value [3]?
Its value is “statistically significant inhibition; also recorded: robust blocking”.

What about the “percent inhibition relative to Stimulated of IL-6 expression” value [3] of the same molecule?
The value was “inhibited IL-6 expression in statistically significant, dose-dependent manner”.

What about the “percent inhibition relative to Stimulated of MCP-1 expression” value [3] of the same molecule?
The value was “inhibited MCP-1 expression in statistically significant, dose-dependent manner”.
